Test results published in patent EP4775579A1, “BERBERRUBINE-RELATED COMPOUND” (Mitogenic Co., Ltd., priority 2023, dated 2025).
Where a name gives a salt, the structure may show the parent alone.

Assays:
HeLa cells = assay: Cancer cell growth, trypan blue cell count; format: cell-based, human; conditions: 30 µM; 24, 48, and 72 hours after addition
Experimental: Cells were collected at 24, 48, and 72 hours after addition and stained with trypan blue, and the number of cells were measured. Note that the HeLa cells are cell lines derived from human uterus cancer cells and are widely used as model cells for cancer.

C57BL/6N24 mice = assay: M-mode echocardiography in aged mice; format: in vivo; conditions: mice from 24 months of age, 12 weeks after start; adduct 0.5 mg/mL in drinking water; quinoid-type 0.5 mg/mL in diet
Description: The results of echocardiography using the M-mode echocardiography technique on the mice 12 weeks after the start of administration are shown in FIG. 16.
The results of echocardiography using the M-mode echocardiography technique on the mice 12 weeks after the start of administration are shown in FIG. 20.

[1] = tested on: mitochondrial respiratory chain supercomplexes; assay: Formation of mitochondrial respiratory chain supercomplexes, FRET between GFP-complex I and RFP-complex IV in C2C12 cells; format: cell-based; conditions: 3, 10, 30, or 60 µM; 24 hours after addition
Experimental: At the point of 24 hours after addition, formation of a mitochondrial respiratory chain supercomplex was detected by detecting FRET between GFP and RFP, resulting from the association of complex I and complex IV.

brown fat cells = assay: TMRM/Hoechst fluorescence microscopy of primary cultured brown fat cells; format: cell-based, mice; conditions: 30 µM, 48 hours after addition
Experimental: Brown fat cells removed from fetal C57BL/6NJcl mice were cut into pieces with scissors in an isolation buffer solution (0.123 M of sodium chloride, 5 mM of glucose, 5 mM of potassium chloride, 1.3 mM of calcium chloride, 100 mM of HEPES-NaOH (pH 7.4), 4% BSA) containing 1 mg/mL of collagenase, and warmed in a water bath at 37 °C for 30 minutes. After removal of aggregates using a cell strainer, the cells were collected by centrifugation at 1000 x g for 5 minutes and suspended in a DMEM medium containing 20% FBS, thereby preparing primary cultured cells of the brown fat cells.
Moreover, as a control, the same amount of DMSO as in the DMSO solution of quinoid-type berberrubine was added to the primary cultured cells.
The primary cultured cells cultured for 48 hours after addition had the nuclei stained with Hoechst (manufactured by NACALAI TESQUE, INC.) and mitochondria stained with tetramethylrhodamine methyl ester (TMRM, manufactured by Thermo Fisher Scientific) and then were observed under a fluorescence microscope (magnification: 60x).

[2] = tested on: cardiac failure and myocardial fibrosis markers; assay: Quantitative RT-PCR of cardiac failure and myocardial fibrosis markers in aged mice; format: in vivo; conditions: mice from 24 months of age, 12 weeks after start; adduct 0.5 mg/mL in drinking water; quinoid-type 0.5 mg/mL in diet
Description: Moreover, the results of quantifying cardiac failure and myocardial fibrosis markers in the mice 12 weeks after the start of administration by means of quantitative RT-PCR are shown in FIG. 18.
Moreover, the results of quantifying cardiac failure and myocardial fibrosis markers in the mice 12 weeks after the start of administration by means of quantitative RT-PCR are shown in FIG. 21.

[3] = tested on: Mouse fetal fibroblast (MEF) cells; assay: Tom20 immunofluorescence staining, content of mitochondria in MEF cells; format: cell-based; conditions: 30 µM, 48 hours after addition
Experimental: (§1) 48 hours after addition, Tom20, which is a mitochondrial outer membrane protein, was detected by immunofluorescence staining. For the detection of Tom20, the anti-Tom20 antibody (Santa Cruz, sc-11415) was used.

C2C12 cells = assay: Oxygen consumption rate (OCR) of C2C12 cells, extracellular flux analyzer (basal respiration, ATP synthesis, maximal respiration); format: cell-based; conditions: 30 µM
Experimental: A DMSO solution of 3.5 mg/mL of quinoid-type berberrubine was added to C2C12 cells in Dulbecco's modified Eagle (DMEM) medium containing 10% fetal bovine serum (FBS), penicillin, and streptomycin, such that the final concentration was 30 µM (FIG. 4A).
As a control, the same amount of water was added to the C2C12 cells described above.
During this period, the oxygen consumption rate (OCR) of the C2C12 cells was measured over time using an extracellular flux analyzer.
The OCR during the period between the addition of the ATP synthase inhibitor and the addition of the uncoupling agent, the OCR during the period between the addition of the uncoupling agent and the addition of the mitochondrial complex inhibitor, and the OCR in the period after the addition of the mitochondrial complex inhibitor each correlate with the amount of basal respiration, ATP synthesis, and maximal respiration in mitochondria. Thus, the amount of basal respiration, ATP synthesis, and maximal respiration in mitochondria were evaluated using OCR at the points of 30, 60, and 90 minutes as indicators.

PINK1-knockout MEF cells = assay: Tom20 immunofluorescence staining, content of mitochondria in PINK1-knockout MEF cells (Parkinson's disease model); format: cell-based, Mouse; conditions: 30 µM, 48 hours after addition
Experimental: as §1
Note that PINK1 is the gene responsible for Parkinson's disease, and PINK1 deficiency causes mitochondrial dysfunction associated with Parkinson's disease. Therefore, PINK1-knockout MEF cells are used as a model for patients affected by Parkinson's disease.

tau proteins = assay: Western blotting of tau proteins in Neuro2A cells with aggregated tau; format: cell-based; conditions: 30 µM, 8 hours of culturing
Experimental: Neuro2A cells were introduced with ΔN-P301Ltau-CRY2olig by transfection. One day after introduction, nocodazole was added to stop the cell cycle, and subsequent blue light irradiation for 24 hours induced the aggregation of tau proteins in the cells.
After 8 hours of culturing after addition, the tau proteins in the cells were detected by means of Western blotting using an antibody against phosphorylated Tau at position S396 (pS396), an antibody against phosphorylated Tau at position S422 (pS422), an antibody against full length Tau (JM), and an antibody against the C-terminal region of Tau (tauC). The tau proteins were detected at around 100 kDa.

[4] = literature value; cited from earlier work
mitochondrial mRNA = assay: Quantitative RT-PCR of mitochondrial mRNA in aged mice; format: in vivo; conditions: mice from 24 months of age, 12 weeks after start; adduct 0.5 mg/mL in drinking water; quinoid-type 0.5 mg/mL in diet
Description: Moreover, the results of quantifying the mRNA expression of mitochondria in the mice 12 weeks after the start of administration by means of quantitative RT-PCR are shown in FIG. 19.
Moreover, the results of quantifying the expression of Mitol which is mRNA of mitochondria in the mice 12 weeks after the start of administration by means of quantitative RT-PCR are shown in FIG. 22.

mouse visceral fat = assay: Accumulation of visceral fat in mice; format: in vivo; conditions: male mice aged 50 weeks; oral, 1.25% agar containing 0.35 mg/mL for 2 months
Experimental: Male C57BL/6NJcl mice aged 50 weeks were orally administered 1.25% agar containing 0.35 mg/mL of quinoid-type berberrubine or 1.25% agar not containing quinoid-type berberrubine (control) for 2 months. At the end of the period, accumulation of visceral fat in the mice was observed.

mouse spermatozoa = assay: Sperm motility and MitoTracker staining after oral administration to mice; format: in vivo
Experimental: Male C57BL/6NJcl mice aged 9 to 10 weeks were orally administered 1.25% agar containing 0.35 mg/mL of quinoid-type berberrubine or 1.25% agar not containing quinoid-type berberrubine for 2 weeks. The oral administration was performed by placing a container containing this agar in a cage with the mice, such that the mice could constantly ingest this agar from the container (subsequent oral administration of agar to mice was performed in the same manner). At 20 weeks of age, the mice were anesthetized isoflurane (KANTO KAGAKU), euthanized by cervical dislocation, and had their testes and epididymis removed. The removed epididymis was cut into pieces with scissors in 1 mL of phosphate buffered saline (PBS) and then placed at room temperature for 1 hour, thereby preparing sperm samples. 20 µL of the sample was transferred to a glass bottom dish, and mitochondria and nuclei were stained by MitoTracker (manufactured by Thermo Fisher Scientific) and Hoechst (manufactured by NACALAI TESQUE, INC.), respectively.

[5] = tested on: mitochondria isolated from cardiomyocytes of mice; assay: OCR of mitochondria isolated from cardiomyocytes of treated mice, flux analyzer; format: in vivo; conditions: 12 weeks after start; adduct 0.5 mg/mL in drinking water; quinoid-type 0.5 mg/mL in diet
Description: Moreover, mitochondria were isolated from cardiomyocytes of mice 12 weeks after the start of administration using a standard method. 23A and 23B.

mice irradiated with UV = assay: Skin of UV-irradiated mice, visual observation; format: in vivo; conditions: oral, 1.25% agar containing 0.35 mg/mL for 2 months; UV 3 times a week for 8 weeks
Experimental: Male C57BL/6NJcl mice aged 8 weeks were orally administered 1.25% agar containing 0.35 mg/mL of quinoid-type berberrubine or 1.25% agar not containing quinoid-type berberrubine (control) for 2 months. The skin of the mice during the same period was irradiated with UV 3 times a week for 8 weeks. The irradiation dose was 1 mW/cm^2 for 70 seconds (70 mJ/cm^2) in the first week, 1 mW/cm^2 for 80 seconds (80 mJ/cm^2) in the second week, 1 mW/cm^2 for 90 seconds (90 mJ/cm^2) in the third week, and 1 mW/cm^2 for 100 seconds (100 mJ/cm^2) in the fourth week and thereafter. At the end of the same period, the skin of the mice was visually observed.

Description for physchem: Determine the minimum amount (mL) of the solvent that can completely dissolve the berberrubine-related compound by changing the volume of the solvent, as appropriate. Calculate the solubility (g/mL) of each berberrubine-related compound in each solvent from the used berberrubine-related compound (1 g) and the minimum volume (mL) of the solvent.
By changing the volume of the solvent, as appropriate, the minimum amount (mL) of the solvent that can completely dissolve the berberrubine-related compound was determined. From the used berberrubine-related compound (1 g) and the minimum volume (mL) of the solvent, the solubility (g/mL) of each berberrubine-related compound in each solvent was determined.

Compound: COc1ccc2cc3n(cc-2c1=O)CCc1cc2c(cc1-3)OCO2 [quinoid-type berberrubine, 10-methoxy-5,6-dihydro-9H-[1,3]dioxolo[4,5-g]isoquinolino [3,2-a]isoquinolin-9-one]
- ratio of the number of HeLa cells after administration with respect to the number of HeLa cells in the control (HeLa cells): decreased over time
- % left ventricular fractional shortening (%FS) compared to the control (C57BL/6N24 mice): increase
- left ventricular ejection fraction (LVEF) compared to the control (C57BL/6N24 mice): increase
- left ventricular end-diastolic diameter (LVDd) compared to the control (C57BL/6N24 mice): decrease
- left ventricular end-systolic diameter (LVDs) compared to the control (C57BL/6N24 mice): decrease
- left ventricular filling pressure (E/e') compared to the control (C57BL/6N24 mice): decrease
- formation of mitochondrial respiratory chain supercomplexes (FRET between GFP and RFP) [1]: promoted the formation of mitochondrial respiratory chain supercomplexes in a concentration-dependent manner
- increase in amount of active mitochondria having normal membrane potential, compared to the addition of a berberrubine acetic acid adduct (brown fat cells): to a greater extent
- staining of mitochondria by TMRM (active mitochondria having normal membrane potential) (brown fat cells): strong staining
- expression levels of cardiac failure markers (Nppa, Nppb, and Myh7) compared to the control [2]: reduced
- expression levels of myocardial fibrosis markers (Collagen1 and Ctgf) compared to the control [2]: reduced
- content of mitochondria in the cells compared to the control [3]: increased
- basal respiration in mitochondria, enhancement compared to the controls (C2C12 cells; 24 hours after addition, OCR at 30 minutes): about 4 fold
- ATP synthesis in mitochondria, enhancement compared to the controls (C2C12 cells; 24 hours after addition, OCR at 60 minutes): about 4 fold
- maximal respiration in mitochondria, enhancement compared to the controls (C2C12 cells; 24 hours after addition, OCR at 90 minutes): about 4 fold
- ATP synthesis in mitochondria, compared to the addition of the berberrubine acetic acid adduct (C2C12 cells; C2C12 cells): about 2.5 fold
- basal respiration in mitochondria, compared to the addition of the berberrubine acetic acid adduct (C2C12 cells; C2C12 cells): about 2.5 fold
- maximal respiration in mitochondria, compared to the addition of the berberrubine acetic acid adduct (C2C12 cells; C2C12 cells): about 2.6 fold
- content of mitochondria in the cells (PINK1-knockout MEF cells): increased
- expression level of full-length Tau (tau proteins): no significant changes
- ratio of the expression level of phosphorylated Tau at position S396 with respect to that of full-length Tau (pS396-tau/JM), reduction compared to the control (tau proteins): about 35%
- ratio of the expression level of phosphorylated Tau at position S422 with respect to that of full-length Tau (pS422-tau/JM), reduction compared to the control (tau proteins): no significant changes
- SOLUBILITY (g/mL) OF BERBERRUBINE-RELATED COMPOUND IN 1 mL OF SOLVENT, WATER [4]: 0.000013 (LITERAT URE VALUE) g/mL
- expression of Mitol compared to the control (mitochondrial mRNA): increase
- visceral fat accumulation compared to mice not administered (mouse visceral fat): inhibited
- number of spermatozoa in which mitochondria were stained with MitoTracker, increase compared to the control (mouse spermatozoa; 1.25% agar containing 0.35 mg/mL for 2 weeks): about twofold
- sperm motility compared to the control (mouse spermatozoa; quinoid-type: 1.25% agar containing 0.35 mg/mL for 2 weeks, adduct: 2 mg/mL aqueous solution): more actively motile
- oxygen consumption rate (OCR) in State 2 (ADP-limited state) compared to the control [5]: increased
- oxygen consumption rate (OCR) in State 3 (activated respiratory state) compared to the control [5]: increased
- oxygen consumption rate (OCR) in State 3u (uncoupled state) compared to the control [5]: increased
- oxygen consumption rate (OCR) in State 4o (oligomycin-induced state) compared to the control [5]: increased
- number of wrinkles compared to mice not administered (mice irradiated with UV): fewer
- skin darkening compared to mice not administered (mice irradiated with UV): inhibited
- wrinkle depths compared to mice not administered (mice irradiated with UV): shallower

Compound: COc1ccc2cc3n(cc-2c1=O)CCc1cc2c(cc1-3)OCO2 [berberrubine acetate salt]
- solubility at 0.5 h (physchem; methanol): 34 mg/mL
- solubility at 0.5 h (physchem; water): 30 mg/mL
